Data set [1] deals with scFv Y1 binding to glycocalicin. As to the kind of experiment: Competitive binding ELISA of sulfated peptides to Y1. The arrangement: species or system human. The following applies: for Inhibition of Y1 binding to glycocalicin by peptide: peptide preincubated with scFv Y1 at 1, 10 and 100 μM. The procedure: A competitive binding ELISA assay was used to assess the importance of position of sulfated tyrosines to the binding of peptides to Y1.
Glycocalicin was immobilized on a Maxisorb plate. scFv Y1 was preincubated with a peptide of interest for 10 minutes at three different concentrations (1, 10 and 100 μM) in order to observe a dose response. (Table 12). After preincubation, the mixture (Y1+peptide) was added to the plate, and binding of scFv Y1 was assessed using polyclonal rabbit anti-VL, which recognizes the VL chain of scFv Y1, followed by anti-rabbit-HRP. In mixtures in which the peptide bound to scFv Y1, a decrease in the binding of scFv Y1 to glycocalicin compared to control binding was observed.
On the technique in general: An ELISA detects its analyte on a solid surface through an enzyme-linked reagent.

Data set [2] deals with Y1 Binding to Glycocalicin. As to the kind of experiment: ELISA: effect of synthetic GPIbα peptides on Y1 binding to purified glycocalicin. The following applies: 0.25 μg/well Y1. Set-up: species or system human. The procedure: ELISA assays were developed to evaluate the effect of the GPIb derived synthetic peptides on the binding of Y1 to purified glycocalicin. In addition, FACS analysis using washed platelets was carried out. To evaluate the importance of sulfated tyrosine within the Y1 binding site of GPIb, a competitive binding FACS analysis was used. Y1-scFv at a concentration of 1 μg was preincubated with different peptides at concentrations of 2.5 and 200 μM. After a preincubation for 30 minutes at room temperature the mixture was added to a tube containing ˜10^7 washed platelets and the binding of Y1 to the washed platelets was assessed using polyclonal rabbit anti-scFv-PE. The inhibitory effect of the peptides compared to control binding (Y1 alone) was evaluated by measuring the residual binding of Y1 to washed platelets. The peptides and the results are described in Table 1 and are similar to results that were observed using the same peptides in an ELISA assay (Table B). In both assays, a control level of Y1 binding was determined, as follows. A polystyrene microtiter maxisorb plate was coated with (a) purified glycocalicin or (b) washed platelets. […] The plate was then incubated with rabbit anti-scFv followed by addition of anti rabbit-HRP (horse radish peroxidase) and HRP substrate. The level of anti rabbit-HRP binding was measured by the intensity of the color produced, and the level of anti rabbit-HRP binding correlates with the level of binding of anti Y1-scFv and the level of binding of Y1. The optical density was measured at A405. Each sample was assayed in duplicate, and the average was calculated.
The effect of synthetic GPIbα peptides on Y1 binding to purified glycocalicin was evaluated by mixing varying concentrations of the peptides with a constant amount of Y1. After a preincubation for 30 minutes at room temperature, the mixture was added to a polystyrene microtiter maxisorb plate coated with purified glycocalicin, as described for evaluation of Y1 binding in the absence of peptides. The inhibitory effect of the peptides was evaluated by measuring the residual binding of Y1 to glycocalicin using rabbit anti Y1 scFv and anti rabbit-HRP antibodies, as described for evaluation of Y1 binding in the absence of peptides. This study was performed with four peptides representing various subsets of the sequence 268 to 285 and a control peptide. Each peptide was tested at different concentrations: 200 μM, 25 μM, 2.5 μM, and 0.5 μM.

Another data set deals with washed platelets. As to the kind of experiment: Competitive FACS: effect of synthetic GPIbα peptides on Y1 binding to washed platelets. Set-up: species or system human. The procedure:
ELISA assays were developed to evaluate the effect of the GPIb derived synthetic peptides on the binding of Y1 to purified glycocalicin. In addition, FACS analysis using washed platelets was carried out. To evaluate the importance of sulfated tyrosine within the Y1 binding site of GPIb, a competitive binding FACS analysis was used. Y1-scFv at a concentration of 1 μg was preincubated with different peptides at concentrations of 2.5 and 200 μM. After a preincubation for 30 minutes at room temperature the mixture was added to a tube containing ˜10^7 washed platelets and the binding of Y1 to the washed platelets was assessed using polyclonal rabbit anti-scFv-PE. The inhibitory effect of the peptides compared to control binding (Y1 alone) was evaluated by measuring the residual binding of Y1 to washed platelets. The peptides and the results are described in Table 1 and are similar to results that were observed using the same peptides in an ELISA assay (Table B). In both assays, a control level of Y1 binding was determined, as follows. A polystyrene microtiter maxisorb plate was coated with (a) purified glycocalicin or (b) washed platelets. After extensive washing, 0.5 μg/well of Y1 was added. The plate was then incubated with rabbit anti-scFv followed by addition of anti rabbit-HRP (horse radish peroxidase) and HRP substrate. The level of anti rabbit-HRP binding was measured by the intensity of the color produced, and the level of anti rabbit-HRP binding correlates with the level of binding of anti Y1-scFv and the level of binding of Y1. The optical density was measured at A405. Each sample was assayed in duplicate, and the average was calculated.

The subject of another data set is KG-1 cells. In words: AML KG-1 model in NOD/SCID mice. The settings on record: for percentage of KG-1 cells in bone marrow compared to untreated group 2: Doxorubicin 0.1 mg/kg 3 times per week, CONY1-Doxorubicin 75 μg/mouse 3 times per week, Mylotarg 0.2 mg/kg 1 time per week. The class given is in vivo. The procedure:
The in vivo mouse model for human AML uses SCID/NOD mice (Jackson Laboratories) inoculated with KG-1 cells derived from a human AML cell line.
In a first experiment, NOD/SCID mice were pretreated with 100 mg/kg CYTOXAN®. Four days post CYTOXAN® injection, KG-1 cells were injected intravenously into the tail vein of six groups of mice. (Table N, Groups 2 and 5-9). One group of mice (Table N, Group 1) was injected with PBS alone (control).
Beginning 19 days post KG-1 injection mice were treated with: CONY1, Doxorubicin, CONY1-Doxorubicin conjugate, or Mylotarg®. (Mylotarg® is a monoclonal antibody (anti CD33) conjugated chemically to calcheamicin recently approved by the FDA for treatment of AML patients age 60 and over in a first relapse.) Mice were treated once or three times per week for three weeks. One group (group 2) of KG-1 inoculated mice were left untreated. (Table N). Two other groups of mice (groups 3 and 4) were injected with KG-1 cells that were previously incubated with CONY1 or 181-scFv (a negative, non-specific control antibody) in serum free RPMI containing 1% BSA at 4° C. for 1 h. The antibodies were used at a concentration of 0.25 mg scFv/l 10^8 cells (75 μg/mouse). Before injection into the mice the preincubated KG-1 cells were washed and resuspended in RPMI. The KG-1 cells in RPMI were inoculated into mice at a concentration of 75 μg scFv/0.2 ml RPMI per mouse. Group 3 mice were inoculated with KG-1+CONY1, and group4 mice were inoculated with KG-1+181-scFv. (Table N). This treatment (group 3 and 4) was carried out one day after the inoculation of groups 1-2 and 5-9, i.e., at five days after CYTOXAN injection.
Mice were sacrificed from 60 to 65 days post cell injection. Bone marrow samples were analyzed by flow cytometry using mouse anti human CD34-FITC (IQP 144F) (or anti CD44-FITC (MCA89F, Serotec)) and Y1-Biotin/SAV-PE. Mouse IgG1-FITC (IQP 191-F) was used as an isotype control, and mouse IgG2a-FITC (MCA929F, Serotec) was used as a negative control. Flow cytometry was performed using FACSCalibur system and CellQwest software, Becton Dickinson.
An additional experiment was performed in which SCID-NOD mice were i.v. injected with 3×10^4 MOLT-4 cells/mouse 5 days post treatment with cyclophosphamide. Anti-cancer agents or PBS were injected IV three times/week, from day 14 onward. On day 60, blood was drawn, then the animals were sacrificed. Bone marrow was extracted and analyzed by FACS analysis using a commercially available antiCD44 antibody for the detection of MOLT-4 cells in the mice bone marrow cell population.

Starred links: 1 amine or outer side, 2 acyl side, 3 side chain; linkers in the order of their positions; H or OH if unused. Primed or numbered codes have the meaning given here. No end group written: not given here. *: point of attachment. SO3H = sulfated tyrosine (Y*), O=S(=O)(O)[*:2]; SO3H″ = O=S(=O)(O)*

Chain of scFv Y1 binding to glycocalicin (as listed by the source): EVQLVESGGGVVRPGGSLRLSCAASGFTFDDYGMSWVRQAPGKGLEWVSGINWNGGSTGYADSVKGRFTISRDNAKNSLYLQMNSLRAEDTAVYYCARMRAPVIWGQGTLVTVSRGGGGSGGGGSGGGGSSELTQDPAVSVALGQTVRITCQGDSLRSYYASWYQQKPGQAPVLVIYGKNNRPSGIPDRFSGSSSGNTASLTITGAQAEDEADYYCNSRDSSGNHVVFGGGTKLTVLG
Chain of Y1 Binding to Glycocalicin (as listed by the source): as above

“QATEY*EYLDY*DFLPETE (QATEY(SO3H)EYLDY(SO3H)DFLPETE) [P-Y*Y Y*, PSGL-1 n-terminus peptide, sulfated]”: in data set [1], the “Inhibition of Y1 binding to glycocalicin by peptide” value (from here on “Inhibition of Y1 binding”) is reported as “inhibited Y1 binding to glycocalicin”.

Turning to “TDLY*DY*Y*PEEDTE (TDLYDYYPEEDTE; not fully specified (residues 4, 6, 7); printed as TDLY*DY*Y*PEEDTE) [P-2-S, residues 273-285 of GPIbα]”, the “Residual Binding of Y1 (% of baseline)” value in data set [2] (peptide 0.5 μM) is listed as 78 % of baseline; in data set [2] (peptide 2.5 μM), 52 % of baseline; in data set [2] (peptide 25 μM) it was 15 % of baseline. Besides, the figures for the “Residual Binding of Y1 (% of baseline) (Geo Mean)” value with washed platelets (peptide 2.5 μM) and in the data set on washed platelets (peptide 200 μM) were 61 % of baseline and 7 % of baseline, respectively.

Take “QATEY*EYLDYDFLPETE (QATEY(SO3H)EYLDYDFLPETE) [P-Y*YY, PSGL-1 n-terminus peptide, sulfated]”: in data set [1] (competitive ELISA, scFv Y1 on glycocalicin), the “peptide concentration at which binding is inhibited efficiently” value was 100 µM. Further, the “Inhibition of Y1 binding” value in data set [1] was “inhibited Y1 binding to glycocalicin”.

For the compound “QATEY*EY*LDYDFLPETE (QATEY(SO3H)EY(SO3H)LDYDFLPETE) [P-Y* Y*Y, PSGL-1 n-terminus peptide, sulfated]”, in data set [1], the “Inhibition of Y1 binding” value is given as “inhibited Y1 binding to glycocalicin”.

For `COc1cccc2c1C(=O)c1c(O)c3c(c(O)c1C2=O)C[C@@](O)(C(=O)CO)C[C@@H]3O[C@H]1C[C@H](N)[C@H](O)[C@H](C)O1` [Doxorubicin], in the data set on KG-1 cells (additional experiment, day 60), the “reduction in the number of tumor cells in the bone marrow” value was determined as 50%. The “mice that died within three weeks after treatment initiation” value in the data set on KG-1 cells (first experiment, group 7, 5 mg/kg, 1 time per week) is “Nine out of 10”. Further, in the data set on KG-1 cells (first experiment), the “percentage of KG-1 cells in bone marrow compared to untreated group 2” value is reported as “statistically significant (p<0.05) lower percentage”.

For “GDEGDTDLYDYYPEEDTE [P-1, residues 268-285 of GPIbα, non-sulfated]”, the “Residual Binding of Y1 (% of baseline)” value in data set [2] (peptide 0.5 μM) is listed as 88 % of baseline; in data set [2] (peptide 2.5 μM), 94 % of baseline; in data set [2] (peptide 25 μM) it was 71 % of baseline; in data set [2] (peptide 200 μM), 61 % of baseline. In addition, the “Residual Binding of Y1 (% of baseline) (Geo Mean)” value with washed platelets (peptide 200 μM) is 87 % of baseline.

Turning to “QATEYEY*LDY*DFLPETE (QATEYEY(SO3H″)LDY(SO3H″)DFLPETE) [P-YY* Y*, PSGL-1 n-terminus peptide, sulfated]”, the “Inhibition of Y1 binding” value in data set [1] was “best inhibitors”.

As for “GDEGDTDLY*DY*Y*PEEDTE (GDEGDTDLYDYYPEEDTE; not fully specified (residues 9, 11, 12); printed as GDEGDTDLY*DY*Y*PEEDTE) [P-1-S, residues 268-285 of GPIbα, Y* sulfated tyrosine]”, the “Residual Binding of Y1 (% of baseline)” value in data set [2] (peptide 0.5 μM) is recorded as 89 % of baseline; in data set [2] (peptide 2.5 μM) it was 62 % of baseline; in data set [2] (peptide 25 μM) it was 25 % of baseline; in data set [2] (peptide 200 μM), 0 % of baseline. Moreover, the figures for the “Residual Binding of Y1 (% of baseline) (Geo Mean)” value in the data set on washed platelets (peptide 2.5 μM) and with washed platelets (peptide 200 μM) were 41 % of baseline and 5 % of baseline, respectively. In data set [1], the “Inhibition of Y1 binding” value is on record as “did inhibit the binding”.

Regarding “QATEYEY*LDYDFLPETE (QATEYEY(SO3H)LDYDFLPETE) [P-YY*Y, PSGL-1 n-terminus peptide, sulfated]”, the “Inhibition of Y1 binding” value in data set [1] was “inhibited Y1 binding to glycocalicin”.

Turning to “GDEGDTDLY*DY*Y*P (GDEGDTDLYDYYP; not fully specified (residues 9, 11, 12); printed as GDEGDTDLY*DY*Y*P) [P-3-S, residues 268-280 of GPIbα]”, the “Residual Binding of Y1 (% of baseline)” value in data set [2] (peptide 0.5 μM) is given as 80 % of baseline; in data set [2] (peptide 2.5 μM), 67 % of baseline; in data set [2] (peptide 25 μM) it was 21 % of baseline. In addition, the figures for the “Residual Binding of Y1 (% of baseline) (Geo Mean)” value in the data set with washed platelets (peptide 2.5 μM) and with washed platelets (peptide 200 μM) were 82 % of baseline and 26 % of baseline, respectively.

With “REEGRQHFFLLEGRSSYS [negative control peptide, reference compound]”, the “Residual Binding of Y1 (% of baseline)” value in data set [2] (peptide 2.5 μM) is on record as 100 % of baseline; in data set [2] (peptide 25 μM), 89 % of baseline; in data set [2] (peptide 200 μM) it was 85 % of baseline. Moreover, the “Residual Binding of Y1 (% of baseline) (Geo Mean)” value with washed platelets (peptide 2.5 μM) is on record as 96 % of baseline.

For the compound “Mylotarg: monoclonal antibody (anti CD33) conjugated chemically to calcheamicin”, the “prevalence of cancer cells in the bone marrow” value with KG-1 cells (additional experiment, day 60, CONY1 scFv 75 μg/mouse three times/week, Mylotarg 7 μg/mouse once a week) is given as “completely inhibited”. For the same compound, the “percentage of KG-1 cells in bone marrow compared to untreated group 2” value in the data set with KG-1 cells (first experiment) is given as “free of KG 1 cells”.
